# Where no end group is shown, it is not given here.
# Assays:
# ASIC1 = biological target: T1, ASIC1 (Homo sapiens, UniProt P78348); assay: Whole-cell patch-clamp recording of acid-activated currents; format: cell-based; conditions: PcTX1 20 nM perfusion for several minutes; pH drop 7.4 to 6.0; U87MG cells; n=5
# T1 construct: drop of extra-cellular pH from 7.4 to 6.0 can induce transient inward currents in A172 and U87MG cells; endogenous in cells; host or cells: U87MG human glioblastoma cells (ATCC)
# T1 sequence (P78348 1-528): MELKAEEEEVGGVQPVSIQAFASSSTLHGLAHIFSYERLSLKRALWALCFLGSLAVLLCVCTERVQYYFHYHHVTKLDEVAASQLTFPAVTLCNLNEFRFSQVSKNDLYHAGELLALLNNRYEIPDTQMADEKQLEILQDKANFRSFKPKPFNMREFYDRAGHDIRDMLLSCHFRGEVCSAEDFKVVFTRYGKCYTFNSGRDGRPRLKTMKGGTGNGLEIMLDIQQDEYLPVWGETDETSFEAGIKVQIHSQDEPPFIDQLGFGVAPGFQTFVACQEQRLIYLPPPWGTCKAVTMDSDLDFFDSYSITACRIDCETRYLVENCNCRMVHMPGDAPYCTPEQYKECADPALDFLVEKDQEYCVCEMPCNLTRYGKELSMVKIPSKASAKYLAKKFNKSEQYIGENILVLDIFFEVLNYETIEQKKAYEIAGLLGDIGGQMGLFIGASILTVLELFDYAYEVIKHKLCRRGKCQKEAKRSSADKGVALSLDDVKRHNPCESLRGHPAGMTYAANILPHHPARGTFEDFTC
# Procedure: Whole-cell currents were recorded by patch-clamp techniques. The currents were recorded with an Axopatch 200B amplifier and low-pass filtered at 2 KHz, digitized using Digidata 1320 DAC unit. Cells were clamped at a holding potential of −80 mV. The patch pipettes were made from thin walled borosilicate glass micropipettes (1.5 mm diameter, World Precision Instruments, Sarasota, FL) by a micropipette puller (PP83; Tokyo, Japan). The range of pipette resistance was 3-5 MΩ when filled with intracellular solu-tion contained 140 mM CsF, 1 mM CaCl2, 2 mM MgCl2, 10 mM HEPES, 11 mM EGTA, 2 mM tet-raethylammonium chloride, and 4 mM MgATP; pH 7.3 adjusted with CsOH, 290 to 300 mOsm adjusted with sucrose. Cells were perfused with an extracellular fluid (ECF) contained 140 mM NaCl, 5.4 mM KCl, 2 mM CaCl2, 1 mM MgCl2, 10 mM Glucose, and 10 mM HEPES; pH 7.4 and 6.0 adjusted with NaOH, 320-330 mOsm. […] The data were recorded and analyzed with pClamp and Sigma Plot software.
# To determine whether ASIC1 is expressed in human glioma cells, we first investigated the expression of ASIC1 protein in A172 and U87-MG cells by Western blotting. […] Next, the study detected the existence of acid-activated currents and the effect of pharmacologic agents on the currents. Acid-activated currents were recorded by whole cell patch-clamp. […]
# A172 cells [1] = assay: Cell viability (MTT) proliferation assay, A172; format: cell-based, human; conditions: 20 nM PcTX1, 3 h in pH 7.4 or 7.0 ECF; 24 h, 48 h and 72 h
# Procedure: (§1) Cells were seeded in 96-well plates overnight and then incubated with pH 7.4 or 7.0 ECF in the absence or presence of 20 nM PcTX1 for 3 h, and then changed to culture medium containing 5% FBS incubating for 24 h, 48 h and 72 h. After the treatments, cell viability was measured by MTT Cell Proliferation Assay Kit according to the manufacturer's instructions. The absorbance values at 540 nm were detected by spectrometer (Molecular devices).
# (§2) Severe acidosis (e.g. pH 6.0) promotes the proliferation of some type of glioma cells. This study first tested the effect of weak acid on the proliferation of A172 and U87MG cells. The study used either pH 7.4 or pH 7.0 solution to pretreat cells for 3 h, and then changed back to medium containing 5% FBS. The cell viability was measured at 24 h, 48 h and 72 h after acid treatment by MTT assay.
# U87MG cells [2] = assay: Cell viability (MTT) proliferation assay, U87MG; format: cell-based, human; conditions: 20 nM PcTX1 with weak acid (pH 7.0), 3 h; different time points
# Procedure: as §1, §2
# (§3) Next, the study examined whether knock-down of ASIC1 affects cell proliferation in the presence or absence of extracellular weak acid. MTT assay was performed to detect the cell viability at 24 h and 72 h with and without acid treatment both in siRNA-Control and siRNA-ASIC1 groups. […] The study further examined whether knockdown of ASIC1 has an effect on the migration of U87MG cells. […] The effect of ASIC1 knockdown on migration was also assessed by transwell.
# A172 cells [3] = assay: Transwell migration assay, A172; format: cell-based, human; conditions: PcTX1 20 nM, pH 7.0 for 3 h, counted after 24 h
# Procedure: (§4) The assay is based on two compartments separated by a mem-brane with an accurately defined pore size. Cell transwell chambers with 8-μm pore size of poly-carbonate membrane filters (Corning, USA) were first pre-coated with poly-L-ornithine over-night. Before plating cells, chambers were incubated with serum-free culture medium for 30 minutes. After that, cells were seeded with culture medium containing 1% FBS in the upper-chambers that were immersed to 750 μl whole medium (DMEM with 10% FBS). After incubating for another 24 hours, some cells on the upper surface of the filter migrated through the membrane to the lower surface of the filter. Cells on the upper face of the filter were wiped out thoroughly with cotton swabs, and those attached on the lower surface were fixed with 4% paraformaldehyde for 15 min. They were then stained with 0.5% crystal violet for 10 min, and let the membrane air dry. The cells on the lower surface of the membrane filter were counted under a microscope in 3-4 random fields with 10× magnification. Cell numbers in each group were normalized to the control groups. Assays were performed in at least 3 independent experiments.
# To further examine the role of ASIC1 in glioma cell migration, the study performed a transwell migration assay using inserts with an 8-μm pore size. […]
# U87MG cells [4] = assay: Transwell migration assay, U87MG; format: cell-based, human; conditions: PcTX1, pH 7.0 for 3 h, counted after 24 h
# Procedure: as §4, with “experiments. […]” for “experiments.”
# Next, the study examined whether knock-down of ASIC1 affects cell proliferation in the presence or absence of extracellular weak acid. […] The effect of ASIC1 knockdown on migration was also assessed by transwell.
# U87MG cells [5] = assay: Wound-healing assay, U87MG; format: cell-based, human; conditions: weak acid pH 7.0
# Procedure: (§5) Wound-healing assay was performed. Cells were seeded into a 24-well plate and grown to ˜80% confluence. The cell monolayer was scratched with 200 μl sterile pipette tip and treated with ECF with or without PcTX1 for 3 hours. The original wound areas at 0 hour were photographed with microscope (Olympus FSX100, 4×). After 3 hours, cells were then incubated with culture medium containing 1% FBS for 24 hours. 24 hours later, images were taken from the same location of the original wound areas and the migration distance was measured with Image J software. The wound-healing rate was calculated as: the ratio of wound closure=[(Area of original wound at 0 h−Area of wound after healing at 24 h)/Area of original wound at 0 h]×100%.
# as §3
# A172 cells [6] = assay: Wound-healing assay, A172; format: cell-based, human; conditions: weak acid pH 7.0
# Procedure: as §5
substance,measurement,setting,value
PcTX1 (LECWKRRRSFEVCVPKTPKT; ends and bridges not checked; cysteine pairing not given here),decrease of the peak of acid-activated currents,ASIC1,80%
same,effect on proliferation of A172 cells (MTT),A172 cells [1],no influence
same,effect on proliferation of U87MG cells (MTT),U87MG cells [2],no clear effect
same,effect on acid induced migration of A172 cells (transwell),A172 cells [3],completely inhibited
same,effect on acid-induced increase of migrated U87MG cells (transwell),U87MG cells [4],completely blocked
same,"effect on acid-induced migration of U87MG cells (wound-healing and transwell, summary)",U87MG cells [5],effectively blocked
same,"effect on acid-induced migration of A172 cells (wound-healing and transwell, summary)",A172 cells [6],effectively blocked
